Reference: ChEMBL document CHEMBL5291721, “A preclinical secondary pharmacology resource illuminates target-adverse drug reaction associations of marketed drugs” (Nat Commun, 2023)

How the values were obtained:
[1] = biological target: Growth hormone secretagogue receptor type 1 (Homo sapiens, UniProt Q92847)
Adenosine receptor A1 = biological target: T1, Adenosine receptor A1 (Homo sapiens, UniProt P30542)
T1 sequence (P30542 whole entry): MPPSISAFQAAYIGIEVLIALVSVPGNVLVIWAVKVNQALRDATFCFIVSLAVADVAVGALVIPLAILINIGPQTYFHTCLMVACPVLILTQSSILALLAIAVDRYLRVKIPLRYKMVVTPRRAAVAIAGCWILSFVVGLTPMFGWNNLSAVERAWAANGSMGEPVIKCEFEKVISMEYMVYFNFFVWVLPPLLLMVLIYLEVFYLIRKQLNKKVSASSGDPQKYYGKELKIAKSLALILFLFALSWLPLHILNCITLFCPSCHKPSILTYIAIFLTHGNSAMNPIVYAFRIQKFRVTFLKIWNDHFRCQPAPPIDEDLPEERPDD

[2] = biological target: T2, 5-hydroxytryptamine receptor 2C (Homo sapiens, UniProt P28335)
T2 sequence (P28335 whole entry): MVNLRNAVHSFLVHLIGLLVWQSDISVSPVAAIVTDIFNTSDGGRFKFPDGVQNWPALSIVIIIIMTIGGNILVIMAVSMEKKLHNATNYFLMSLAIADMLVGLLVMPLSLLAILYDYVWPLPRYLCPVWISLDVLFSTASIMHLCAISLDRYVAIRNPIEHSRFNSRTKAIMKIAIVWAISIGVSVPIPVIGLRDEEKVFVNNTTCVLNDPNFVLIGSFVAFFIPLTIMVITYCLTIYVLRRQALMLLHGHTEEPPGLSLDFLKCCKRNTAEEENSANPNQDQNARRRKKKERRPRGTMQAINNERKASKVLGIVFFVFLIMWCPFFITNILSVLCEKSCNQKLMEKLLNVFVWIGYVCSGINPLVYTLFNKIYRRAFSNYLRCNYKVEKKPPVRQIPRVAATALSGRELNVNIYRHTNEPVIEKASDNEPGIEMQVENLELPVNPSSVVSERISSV

[3] = biological target: T3, Alpha-1A adrenergic receptor (Homo sapiens, UniProt P35348); assay type: functional, cell-based
T3 sequence (P35348 whole entry): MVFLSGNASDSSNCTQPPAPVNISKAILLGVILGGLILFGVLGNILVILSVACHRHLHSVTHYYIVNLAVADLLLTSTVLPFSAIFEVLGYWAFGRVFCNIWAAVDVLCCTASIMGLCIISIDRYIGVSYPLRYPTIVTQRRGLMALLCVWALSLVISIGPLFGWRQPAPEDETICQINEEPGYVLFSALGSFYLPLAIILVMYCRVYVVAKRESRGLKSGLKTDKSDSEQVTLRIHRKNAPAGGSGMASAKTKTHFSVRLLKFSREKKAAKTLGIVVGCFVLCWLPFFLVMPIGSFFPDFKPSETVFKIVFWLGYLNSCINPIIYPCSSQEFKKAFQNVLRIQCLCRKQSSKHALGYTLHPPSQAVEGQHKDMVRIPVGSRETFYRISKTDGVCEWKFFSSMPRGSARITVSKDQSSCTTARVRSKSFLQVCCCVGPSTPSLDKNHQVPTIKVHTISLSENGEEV

[4] = biological target: 5-hydroxytryptamine receptor 2B (Homo sapiens, UniProt P41595); assay type: functional, cell-based
[5] = biological target: T4, Alpha-2A adrenergic receptor (Homo sapiens, UniProt P08913); assay type: functional, cell-based
T4 sequence (P08913 whole entry): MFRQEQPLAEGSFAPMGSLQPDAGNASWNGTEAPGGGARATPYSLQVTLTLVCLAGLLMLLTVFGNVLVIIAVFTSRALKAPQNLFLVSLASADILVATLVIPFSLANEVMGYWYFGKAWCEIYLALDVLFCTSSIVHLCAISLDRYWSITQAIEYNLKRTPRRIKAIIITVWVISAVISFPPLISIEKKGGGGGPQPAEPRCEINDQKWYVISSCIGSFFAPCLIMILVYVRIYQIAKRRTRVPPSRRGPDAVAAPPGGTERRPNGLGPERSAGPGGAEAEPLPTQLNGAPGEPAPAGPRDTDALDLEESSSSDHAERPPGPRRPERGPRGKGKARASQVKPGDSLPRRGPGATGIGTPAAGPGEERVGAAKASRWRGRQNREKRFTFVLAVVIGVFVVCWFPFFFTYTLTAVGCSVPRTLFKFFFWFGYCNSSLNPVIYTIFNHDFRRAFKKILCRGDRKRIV

[6] = biological target: Neuronal acetylcholine receptor subunit alpha-4 (Homo sapiens, UniProt P43681)
Histamine H2 receptor = Histamine H2 receptor (Homo sapiens, UniProt P25021); assay type: functional, cell-based
[7] = biological target: cGMP-inhibited 3',5'-cyclic phosphodiesterase 3A (Homo sapiens, UniProt Q14432); assay type: functional
[8] = biological target: T5, Amine oxidase [flavin-containing] A (Homo sapiens, UniProt P21397); assay type: functional
T5 sequence (P21397 whole entry): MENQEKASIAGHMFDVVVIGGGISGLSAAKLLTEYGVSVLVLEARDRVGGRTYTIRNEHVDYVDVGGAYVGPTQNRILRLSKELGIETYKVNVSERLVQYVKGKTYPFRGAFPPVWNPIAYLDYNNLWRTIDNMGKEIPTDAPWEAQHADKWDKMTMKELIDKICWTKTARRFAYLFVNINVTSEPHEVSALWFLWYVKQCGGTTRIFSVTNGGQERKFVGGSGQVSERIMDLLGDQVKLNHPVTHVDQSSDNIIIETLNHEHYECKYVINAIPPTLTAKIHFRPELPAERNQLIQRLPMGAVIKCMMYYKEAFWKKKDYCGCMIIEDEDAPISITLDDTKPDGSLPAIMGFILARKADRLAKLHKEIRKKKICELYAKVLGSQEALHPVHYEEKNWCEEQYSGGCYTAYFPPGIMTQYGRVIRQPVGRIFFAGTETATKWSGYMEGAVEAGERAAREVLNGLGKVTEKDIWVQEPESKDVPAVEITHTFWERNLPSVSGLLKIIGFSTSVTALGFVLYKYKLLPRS

[9] = biological target: Voltage-dependent L-type calcium channel subunit alpha-1C (Rattus norvegicus, UniProt P22002); assay type: functional
[10] = biological target: Sodium-dependent dopamine transporter (Homo sapiens, UniProt Q01959)
Cannabinoid receptor 1 = Cannabinoid receptor 1 (Homo sapiens, UniProt P21554); assay type: functional, cell-based
Also: assay procedure not described here.

Chain of Neuronal acetylcholine receptor subunit alpha-4 (P43681 whole entry): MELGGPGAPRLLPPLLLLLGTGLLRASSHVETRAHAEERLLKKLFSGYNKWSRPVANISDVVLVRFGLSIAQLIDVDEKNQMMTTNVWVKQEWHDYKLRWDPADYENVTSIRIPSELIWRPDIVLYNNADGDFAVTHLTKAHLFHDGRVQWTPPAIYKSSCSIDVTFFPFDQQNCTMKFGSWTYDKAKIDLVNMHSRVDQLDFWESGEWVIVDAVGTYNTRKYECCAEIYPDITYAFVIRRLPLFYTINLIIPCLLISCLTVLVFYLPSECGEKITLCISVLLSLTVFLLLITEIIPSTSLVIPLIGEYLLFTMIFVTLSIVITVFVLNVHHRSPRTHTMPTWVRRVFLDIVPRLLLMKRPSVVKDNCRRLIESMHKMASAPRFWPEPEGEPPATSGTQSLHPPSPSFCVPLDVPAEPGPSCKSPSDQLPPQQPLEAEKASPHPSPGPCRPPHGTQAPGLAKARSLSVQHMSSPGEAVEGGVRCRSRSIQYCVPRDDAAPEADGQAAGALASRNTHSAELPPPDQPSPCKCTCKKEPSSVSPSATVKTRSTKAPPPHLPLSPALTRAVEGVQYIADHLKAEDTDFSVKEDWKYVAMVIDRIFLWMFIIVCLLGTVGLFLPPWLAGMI
Chain of Growth hormone secretagogue receptor type 1 (Q92847 whole entry): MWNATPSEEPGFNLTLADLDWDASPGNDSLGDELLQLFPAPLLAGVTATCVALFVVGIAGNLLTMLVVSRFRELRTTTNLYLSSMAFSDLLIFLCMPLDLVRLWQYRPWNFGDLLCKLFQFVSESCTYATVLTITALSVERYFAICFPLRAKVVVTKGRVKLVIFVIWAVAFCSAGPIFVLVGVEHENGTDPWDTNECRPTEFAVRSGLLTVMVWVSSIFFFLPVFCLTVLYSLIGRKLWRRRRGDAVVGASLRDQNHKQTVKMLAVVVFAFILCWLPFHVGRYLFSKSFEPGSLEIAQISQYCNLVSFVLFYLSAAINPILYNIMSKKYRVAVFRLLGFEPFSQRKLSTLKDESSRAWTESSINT
Chain of Sodium-dependent dopamine transporter (Q01959 whole entry): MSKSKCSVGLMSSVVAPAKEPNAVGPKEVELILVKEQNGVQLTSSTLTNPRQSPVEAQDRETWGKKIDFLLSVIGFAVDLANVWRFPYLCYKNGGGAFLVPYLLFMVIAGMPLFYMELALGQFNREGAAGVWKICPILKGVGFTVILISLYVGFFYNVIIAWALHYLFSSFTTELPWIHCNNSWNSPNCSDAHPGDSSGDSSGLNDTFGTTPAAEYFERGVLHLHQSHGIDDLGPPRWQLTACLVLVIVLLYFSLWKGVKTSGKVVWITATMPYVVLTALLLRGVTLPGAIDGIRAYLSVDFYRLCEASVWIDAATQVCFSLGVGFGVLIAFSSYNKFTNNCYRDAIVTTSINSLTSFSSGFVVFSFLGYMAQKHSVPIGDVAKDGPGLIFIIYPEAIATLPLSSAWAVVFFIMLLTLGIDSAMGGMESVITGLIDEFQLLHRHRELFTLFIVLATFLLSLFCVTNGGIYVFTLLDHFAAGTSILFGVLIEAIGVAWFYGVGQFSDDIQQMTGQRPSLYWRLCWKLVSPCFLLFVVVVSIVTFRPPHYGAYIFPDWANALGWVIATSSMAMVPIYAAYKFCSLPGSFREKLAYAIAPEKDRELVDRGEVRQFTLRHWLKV
Chain of Histamine H2 receptor (P25021 whole entry): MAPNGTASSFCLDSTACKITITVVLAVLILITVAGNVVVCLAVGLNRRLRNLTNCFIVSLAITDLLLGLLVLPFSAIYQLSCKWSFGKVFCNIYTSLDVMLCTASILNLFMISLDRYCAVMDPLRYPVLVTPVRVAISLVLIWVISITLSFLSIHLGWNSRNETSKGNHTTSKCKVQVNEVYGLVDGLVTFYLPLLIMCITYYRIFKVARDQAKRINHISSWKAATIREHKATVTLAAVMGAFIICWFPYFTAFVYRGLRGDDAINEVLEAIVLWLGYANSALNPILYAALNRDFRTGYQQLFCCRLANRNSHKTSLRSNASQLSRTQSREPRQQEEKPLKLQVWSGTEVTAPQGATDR
Chain of Cannabinoid receptor 1 (P21554 whole entry): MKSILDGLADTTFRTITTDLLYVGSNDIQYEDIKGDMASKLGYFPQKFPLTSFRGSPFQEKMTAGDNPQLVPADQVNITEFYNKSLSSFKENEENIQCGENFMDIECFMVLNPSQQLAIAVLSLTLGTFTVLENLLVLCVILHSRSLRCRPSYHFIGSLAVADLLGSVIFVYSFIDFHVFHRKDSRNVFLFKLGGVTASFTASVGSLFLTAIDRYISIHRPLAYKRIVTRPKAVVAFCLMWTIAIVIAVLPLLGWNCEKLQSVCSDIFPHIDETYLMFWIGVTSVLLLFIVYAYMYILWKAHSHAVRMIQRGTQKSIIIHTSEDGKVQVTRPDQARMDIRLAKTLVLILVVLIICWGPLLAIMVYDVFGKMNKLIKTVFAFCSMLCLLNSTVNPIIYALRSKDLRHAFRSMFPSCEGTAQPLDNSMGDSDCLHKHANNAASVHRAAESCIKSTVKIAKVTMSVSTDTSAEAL
Chain of 5-hydroxytryptamine receptor 2B (P41595 whole entry): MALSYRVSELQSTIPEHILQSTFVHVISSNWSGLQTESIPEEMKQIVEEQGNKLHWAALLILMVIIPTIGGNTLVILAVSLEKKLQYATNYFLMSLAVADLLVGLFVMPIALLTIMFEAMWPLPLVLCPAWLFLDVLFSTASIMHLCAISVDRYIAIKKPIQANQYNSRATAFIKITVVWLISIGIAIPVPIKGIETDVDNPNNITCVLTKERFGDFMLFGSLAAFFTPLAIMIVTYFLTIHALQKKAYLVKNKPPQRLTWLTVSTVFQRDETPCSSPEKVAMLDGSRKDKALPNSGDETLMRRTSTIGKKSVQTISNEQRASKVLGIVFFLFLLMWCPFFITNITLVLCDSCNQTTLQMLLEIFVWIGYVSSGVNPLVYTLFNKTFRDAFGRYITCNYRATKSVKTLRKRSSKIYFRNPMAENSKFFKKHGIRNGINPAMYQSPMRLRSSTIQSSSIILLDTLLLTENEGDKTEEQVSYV
Chain of cGMP-inhibited 3',5'-cyclic phosphodiesterase 3A (Q14432 whole entry): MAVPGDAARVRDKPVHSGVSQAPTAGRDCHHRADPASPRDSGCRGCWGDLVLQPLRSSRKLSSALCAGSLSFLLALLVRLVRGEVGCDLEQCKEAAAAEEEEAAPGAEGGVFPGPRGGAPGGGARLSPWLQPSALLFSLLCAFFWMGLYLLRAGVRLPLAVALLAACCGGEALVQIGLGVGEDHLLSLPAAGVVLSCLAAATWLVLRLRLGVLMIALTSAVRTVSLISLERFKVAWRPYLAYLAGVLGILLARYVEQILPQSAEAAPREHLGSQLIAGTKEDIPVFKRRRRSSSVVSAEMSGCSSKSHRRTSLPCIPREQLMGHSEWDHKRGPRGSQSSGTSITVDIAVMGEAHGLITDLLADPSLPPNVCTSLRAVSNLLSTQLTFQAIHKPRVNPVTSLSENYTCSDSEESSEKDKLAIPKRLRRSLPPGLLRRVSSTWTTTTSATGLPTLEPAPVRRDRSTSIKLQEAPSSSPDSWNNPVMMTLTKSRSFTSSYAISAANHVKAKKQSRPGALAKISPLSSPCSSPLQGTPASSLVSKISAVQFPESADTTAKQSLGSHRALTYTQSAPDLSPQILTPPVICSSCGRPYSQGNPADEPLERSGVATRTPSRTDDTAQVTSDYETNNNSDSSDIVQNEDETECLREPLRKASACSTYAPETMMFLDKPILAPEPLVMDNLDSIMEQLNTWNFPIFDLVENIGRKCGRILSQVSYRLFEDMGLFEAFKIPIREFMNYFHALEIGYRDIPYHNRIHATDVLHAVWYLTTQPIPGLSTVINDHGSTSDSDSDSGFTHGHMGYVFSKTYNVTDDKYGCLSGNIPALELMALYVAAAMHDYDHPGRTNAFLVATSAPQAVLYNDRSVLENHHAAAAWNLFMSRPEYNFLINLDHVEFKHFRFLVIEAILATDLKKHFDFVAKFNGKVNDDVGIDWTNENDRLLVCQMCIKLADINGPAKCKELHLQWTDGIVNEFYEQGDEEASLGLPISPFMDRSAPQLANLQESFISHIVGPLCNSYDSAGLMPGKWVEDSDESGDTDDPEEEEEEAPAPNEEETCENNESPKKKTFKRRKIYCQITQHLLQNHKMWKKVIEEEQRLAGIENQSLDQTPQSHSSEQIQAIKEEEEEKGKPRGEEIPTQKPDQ

Row | SMILES | AC50 [1] [µM] | AC50 (Adenosine receptor A1) [µM] | AC50 [2] [µM] | AC50 [3] [µM] | AC50 [4] [µM] | AC50 [5] [µM] | AC50 [6] [µM] | AC50 (Histamine H2 receptor) [µM] | AC50 [7] [µM] | AC50 [8] [µM] | AC50 [9] [µM] | AC50 [10] [µM] | AC50 (Cannabinoid receptor 1) [µM]
1 | O=C(O)c1ccc2nc(-c3cc(Cl)cc(Cl)c3)oc2c1 | > 30 | > 30 | > 30 | > 30 | > 30 | > 30 | > 30 | > 30 | 24 | 18 | > 30 | > 30 | –
2 | NS(=O)(=O)c1ccc(N2CCCCS2(=O)=O)cc1 | > 30 | > 30 | > 30 | > 30 | > 30 | > 30 | > 30 | > 30 | > 30 | > 30 | – | > 30 | > 30
3 | COc1ccc(-n2nc(C(N)=O)c3c2C(=O)N(c2ccc(N4CCCCC4=O)cc2)CC3)cc1 [APIXABAN] | > 30 | > 30 | > 30 | > 30 | > 30 | > 30 | > 30 | > 30 | > 30 | > 30 | – | > 30 | > 30
4 | CC(=O)OCC1=C(C(=O)O)N2C(=O)[C@@H](NC(=O)Cc3cccs3)[C@H]2SC1 [CEPHALOTHIN] | > 30 | > 30 | > 30 | > 30 | > 30 | > 30 | > 30 | > 30 | > 30 | > 30 | – | > 30 | > 30
5 | CC1=C(C(=O)O)N2C(=O)[C@@H](NC(=O)[C@H](N)C3=CCC=CC3)[C@H]2SC1 [CEPHRADINE] | > 30 | > 30 | > 30 | > 30 | > 30 | > 30 | > 30 | > 30 | > 30 | > 30 | – | > 30 | > 30
6 | CCCCCCOC(=O)NC(=N)c1ccc(NCc2nc3cc(C(=O)N(CCC(=O)OCC)c4ccccn4)ccc3n2C)cc1 [DABIGATRAN ETEXILATE] | > 30 | > 30 | > 30 | > 30 | > 30 | > 30 | > 30 | > 30 | > 30 | > 30 | – | 17 | –
7 | CCN1C(=O)NC(c2ccccc2)C1=O (stereo not drawn) [ETHOTOIN] | > 30 | > 30 | > 30 | > 30 | > 30 | > 30 | > 30 | > 30 | > 30 | > 30 | – | > 30 | > 30
